What all share (test): Minimum Inhibitory Concentration (MIC), agar dilution
For orientation: In agar dilution, organisms are placed on agar that contains the substance at set levels.

The test system of one experiment is S. aureus 77. Type of experiment: cell-based, Staphylococcus aureus. As to conditions: for MIC: read-out: Sensitivity test result (MIC), S. aureus 77. As for the experimental part:
(§1) The effectiveness of the compound according to the present invention was determined by obtaining Minimum Inhibitory Concentration (MIC) of the compounds prepared by the above examples (I-1 to I-6) and vancomycin, which is the known compound having a potent activity against gram-positive strains, as the control drug against the standard strains. Specifically, Minimum Inhibitory Concentration was obtained by diluting the test material with a double dilution method, dispersing them in Mueller-Hinton agar medium, inoculating each of the test strain having 10^7 cfu (colony forming unit) per ml in an amount of 2 μl to the medium and then incubating them at 37° C. for 20 hours. From the result of Minimum Inhibitory Concentration test, it can be seen that the compound according to the present invention has a good activity against major pathogenic microorganisms, which cause hospital infection, including MRSA strains.

The test system of another experiment is S. aureus 241. Type of experiment: cell-based, Staphylococcus aureus. To be noted: read-out: Sensitivity test result (MIC), S. aureus 241. As for the experimental part:
as §1

A further experiment deals with E. faecalis L239. Format: cell-based. As to conditions: Enterococcus faecalis, read-out: Sensitivity test result (MIC), E. faecalis L239. As for the experimental part: as §1
The test system of experiment [1] is Staphylococcus aureus K311. Format: cell-based. To be noted: read-out: Sensitivity test result (MIC), Staphylococcus aureus K311. As for the experimental part:
as §1

Experiment [2] has as its system Staphylococcus aureus giorgio. Format: cell-based. To be noted: for MIC: Staphylococcus aureus, read-out: Sensitivity test result (MIC), Staphylococcus aureus giorgio. As for the experimental part: as §1
The test system of another experiment is E. faecalis EFS004. Type of experiment: cell-based. As to conditions: Enterococcus faecalis, read-out: Sensitivity test result (MIC), E. faecalis EFS004. As for the experimental part:
as §1

The subject of another experiment is S. epidermidis R005. Type of experiment: cell-based. To be noted: for MIC: Staphylococcus epidermidis, read-out: Sensitivity test result (MIC), S. epidermidis R005. As for the experimental part:
as §1

[3] abbreviates: Table 2, Mueller-Hinton agar, 37° C., 20 hours.
Setting [4] is: Staphylococcus aureus, 77, Table 2, Mueller-Hinton agar, 37° C., 20 hours.
Setting [5] is: K311, Table 2, Mueller-Hinton agar, 37° C., 20 hours.
[6] abbreviates: EFS004, Table 2, Mueller-Hinton agar, 37° C., 20 hours.
Setting [7] is: R005, Table 2, Mueller-Hinton agar, 37° C., 20 hours.
[8] abbreviates: Staphylococcus aureus, 77, Table 1, Mueller-Hinton agar, 37° C., 20 hours.
The mark [9] stands for this setting: Staphylococcus aureus, 241, Table 1, Mueller-Hinton agar, 37° C., 20 hours.
The mark [10] stands for this setting: L239, Table 1, Mueller-Hinton agar, 37° C., 20 hours.
The mark [11] stands for this setting: Table 1, Mueller-Hinton agar, 37° C., 20 hours.
[12] abbreviates: R005, Table 1, Mueller-Hinton agar, 37° C., 20 hours.

Structures are written as SMILES. Values after ≈ are worked out from the molar mass of the structure shown. Where two headings read alike, the source gives them in different places.

For orientation: MIC means the least concentration at which growth counts as inhibited. Consider `CN[C@H](CC(C)C)C(=O)N[C@H]1C(=O)N[C@@H](CC(N)=O)C(=O)N[C@H]2C(=O)N[C@H]3C(=O)N[C@H](C(=O)N[C@H](C(=O)O)c4cc(O)cc(O)c4-c4cc3ccc4O)[C@H](O)c3ccc(c(Cl)c3)Oc3cc2cc(c3O[C@@H]2O[C@H](CO)[C@@H](O)[C@H](O)[C@H]2O[C@H]2C[C@](C)(N)[C@H](O)[C@H](C)O2)Oc2ccc(cc2Cl)[C@H]1O` [Vancomycin, vancomycin, reference compound], for which the MIC in the experiment on S. aureus 77 (Staphylococcus aureus, 77, 20 h) came out at 1 µg/mL (≈ 0.69 µM); with S. aureus 241 (Staphylococcus aureus, 241, 20 h) it was 2 µg/mL (≈ 1.38 µM); in the experiment with E. faecalis L239 (L239, 20 h), 2 µg/mL (≈ 1.38 µM); in experiment [1] (K311, 20 h) it was 2 µg/mL (≈ 1.38 µM); in experiment [2] (20 h), 1 µg/mL (≈ 0.69 µM); in the experiment on E. faecalis EFS004 (EFS004, 20 h), 1 µg/mL (≈ 0.69 µM). Besides, in the experiment with S. epidermidis R005 (R005, 20 h), the minimum inhibitory concentration (MIC) was found to be 1 µg/mL (≈ 0.69 µM). Further, the “Sensitivity test result (MIC), S. aureus 77” value in the experiment with S. aureus 77 (setting [3]) worked out at 1 µg/mL. For the same compound, the “Sensitivity test result (MIC), Staphylococcus aureus giorgio” value in experiment [2] (setting [3]) is 1 µg/mL. The “Sensitivity test result (MIC), S. epidermidis R005” value in the experiment with S. epidermidis R005 (setting [3]) is 1 µg/mL.
In the case of `Nc1cc(SC2=C(C(=O)O)N3C(=O)[C@@H](NC(=O)CSc4cc(Cl)nc(Cl)c4)[C@H]3SC2)nc(N)n1` [Compound I-5, (6R,7R)-3-[(2,6-diamino-4-pyrimidinyl)sulfanyl]-7-({2-[(2,6-dichloro-4-pyridinyl)sulfanyl]acetyl}amino)-8-oxo-5-thia-1-azabicyclo[4.2.0]oct-2-ene-2-carboxylic acid], the MIC was 1 µg/mL (≈ 1.78 µM) in the experiment with S. aureus 77 (setting [4]); 1 µg/mL (≈ 1.78 µM) in experiment [1] (setting [5]); 0.063 µg/mL (≈ 0.112 µM) in experiment [2] (setting [3]); 4 µg/mL (≈ 7.14 µM) in the experiment on E. faecalis EFS004 (setting [6]); 1 µg/mL (≈ 1.78 µM) with S. epidermidis R005 (setting [7]).
Regarding `Nc1cc(SC2=C(C(=O)O)N3C(=O)[C@@H](NC(=O)CSc4c(Cl)cccc4Cl)[C@H]3SC2)nc(O)n1` [Compound I-3, (6R,7R)-3-[(6-amino-2-hydroxy-4-pyrimidinyl)sulfanyl]-7-({2-[(2,6-dichloro-phenyl)sulfanyl]acetyl}amino)-8-oxo-5-thia-1-azabicyclo[4.2.0]oct-2-ene-2-carboxylic acid], the minimal inhibitory concentration (MIC) in the experiment with S. aureus 77 (setting [8]) stood at 1 µg/mL (≈ 1.78 µM); with S. aureus 241 (setting [9]), 4 µg/mL (≈ 7.14 µM); with E. faecalis L239 (setting [10]) it was 2 µg/mL (≈ 3.57 µM); in experiment [2] (setting [11]), 0.016 µg/mL (≈ 0.0285 µM); in the experiment with S. epidermidis R005 (setting [12]), 0.5 µg/mL (≈ 0.892 µM).
Take `Nc1cc(SC2=C(C(=O)O)N3C(=O)[C@@H](NC(=O)CSc4cc(Cl)ccc4Cl)[C@H]3SC2)nc(N)n1` [Compound I-1, (6R,7R)-3-[(2,6-diamino-4-pyrimidinyl)sulfanyl]-7-({2-[(2,5-dichlorophenyl)-sulfanyl]acetyl}amino)-8-oxo-5-thia-1-azabicyclo[4.2.0]oct-2-ene-2-carboxylic acid]: the MIC in the experiment on S. aureus 77 (setting [8]) was 0.25 µg/mL (≈ 0.447 µM); in the experiment on S. aureus 241 (setting [9]), 2 µg/mL (≈ 3.57 µM); in the experiment with E. faecalis L239 (setting [10]), 2 µg/mL (≈ 3.57 µM); in experiment [2] (setting [11]), less than 0.008 µg/mL; with S. epidermidis R005 (setting [12]) it was 0.25 µg/mL (≈ 0.447 µM).
For the compound `Nc1ccnc(SC2=C(C(=O)O)N3C(=O)[C@@H](NC(=O)Cc4ccccc4)[C@H]3SC2)n1` [Compound I-4, (6R,7R)-3-[(4-amino-2-pyrimidinyl)sulfanyl]-8-oxo-7-[(phenylacetyl)amino]-5-thia-1-azabicyclo[4.2.0]oct-2-ene-2-carboxylic acid], the MIC in the experiment with S. aureus 77 (setting [8]) was 32 µg/mL (≈ 72.2 µM); with S. aureus 241 (setting [9]), more than 64 µg/mL; in the experiment on E. faecalis L239 (setting [10]), more than 64 µg/mL; in experiment [2] (setting [11]), 4 µg/mL (≈ 9.02 µM); in the experiment on S. epidermidis R005 (setting [12]), 32 µg/mL (≈ 72.2 µM).
Regarding `Nc1nc(O)cc(SC2=C(C(=O)O)N3C(=O)[C@@H](NC(=O)CSc4cc(Cl)nc(Cl)c4)[C@H]3SC2)n1` [Compound I-6, (6R,7R)-3-[(2-amino-6-hydroxy-4-pyrimidinyl)sulfanyl]-7-({2-[(2,6-dichloro-4-pyridinyl)sulfanyl]acetyl}amino)-8-oxo-5-thia-1-azabicyclo[4.2.0]oct-2-ene-2-carboxylic acid], the MIC in the experiment on S. aureus 77 (setting [4]) came out at 2 µg/mL (≈ 3.56 µM); in experiment [1] (setting [5]), 1 µg/mL (≈ 1.78 µM); in experiment [2] (setting [3]) it was 0.063 µg/mL (≈ 0.112 µM); in the experiment on E. faecalis EFS004 (setting [6]) it was 2 µg/mL (≈ 3.56 µM); in the experiment on S. epidermidis R005 (setting [7]), 0.5 µg/mL (≈ 0.891 µM).
For the compound `Nc1nc(O)cc(SC2=C(C(=O)O)N3C(=O)[C@@H](NC(=O)CSc4cc(Cl)ccc4Cl)[C@H]3SC2)n1` [Compound I-2, (6R,7R)-3-[(2-amino-6-hydroxy-4-pyrimidinyl)sulfanyl]-7-({2-[(2,5-dichloro-phenyl)sulfanyl]acetyl}amino)-8-oxo-5-thia-1-azabicyclo[4.2.0]oct-2-ene-2-carboxylic acid], the minimal inhibitory concentration (MIC) with S. aureus 77 (setting [8]) is 0.5 µg/mL (≈ 0.892 µM); with S. aureus 241 (setting [9]), 4 µg/mL (≈ 7.14 µM); with E. faecalis L239 (setting [10]), 2 µg/mL (≈ 3.57 µM); in experiment [2] (setting [11]), 0.031 µg/mL (≈ 0.0553 µM); with S. epidermidis R005 (setting [12]), 0.5 µg/mL (≈ 0.892 µM).

For the origin of these results see US20030162763A1, “Novel cephalosporin compounds and process for preparing the same” (priority 2000, published 2003).
